Measured values as given in US8834635B2, “Degreasing compositions derived from levulinic acid (a compound obtainable from biomass) and process for degreasing metal surfaces” (Institut Univ. de Ciencia Tecnologia, S.A., priority 2011, dated 2014).
Values after ≈ are worked out from the molar mass of the structure shown.

Assays:
[1] = Removal efficacy test, solvent immersion followed by rinsing with water; conditions: for Removal Efficacy normalized to trichloroethylene: Cereous preservative, water rinsing
Excerpt: (§1) For our evaluation, a comparative method was used in which removal efficacy (RE) of several alternative solvents are compared with RE value obtained for the industrial standard degreaser, trichloroethylene.
(§2) The removal Efficacy (RE) measures in percentage (%) the degree of removal of organic materials (metal protector and/or solvent) from the surface of metal parts. The removal efficacy test, the grease of ten metallic greased pieces was removed by degreasing process. The standard procedure is carried out by bringing the solvent into contact with ten metal pieces which were previously treated with the metal protector. The metal parts are immersed in the solvent without shaking during 10 minutes in one volume of fresh solvent followed by three consecutive washing cycles by immersion in clean water. The amount of organic material (grease and/or solvent) that was not eliminated by the assayed procedure was determined by direct weight after removal of organic residues from the metallic parts by standard cleaning procedure with trichloroethylene.
Preservative B is a cereous-based preservative.
(§3) The degreasing efficacy of the LAOC solvent family was studied. These experiments remove the grease of ten greased pieces according to the procedure described before. This experiment was carried out for two different greases and the obtained results are described in table 2.

[2] = as above; conditions: for Removal Efficacy normalized to trichloroethylene: Solvent-based preservative, water rinsing
Excerpt: as §1, §2
Preservative A is a solvent-based preservative Aromatic hydrocarbons are often used in preservative formulations.
as §3

[3] = Cytotoxicity, in vitro NRU; type: cell-based; conditions: read-out: Cytotoxicity, in vitro NRU, IC50 (mg/mL). Experimental.
[4] = Surface degreasing of metal parts followed by solvent evaporation
[5] = Reusability of solvent without prior purification
Experimental: as §2
The recovery and reusability of solvents is critical in order to have an economically viable process. The reusability of butyl levulinate (LAOC-4) has been studied for both preservatives. The methodology involved the recovery and reuse of the solvent several times without any prior purification.

Fish acute toxicity = conditions: fish, in vivo; read-out: Fish acute toxicity, experimental, LC50
Fish = Fish acute toxicity; conditions: in vivo
[6] = classified by many health authorities, R45 risk phrase; cited from earlier work

SMILES: CCOC(=O)CCC(C)=O [LAOC-2, Ethyl levulinate]
- Removal Efficacy normalized to trichloroethylene [1]: 70.9%
- Removal Efficacy normalized to trichloroethylene [2]: 53.0%

SMILES: CCCOC(=O)CCC(C)=O [LAOC-3, Propyl levulinate]
- Removal Efficacy normalized to trichloroethylene [1]: 81.7%
- Removal Efficacy normalized to trichloroethylene [2]: 79.6%

SMILES: CC(=O)CCC(=O)OC(C)C [LAOC-3i, iso-propyl levulinate]
- Removal Efficacy normalized to trichloroethylene [1]: 87.0%

SMILES: CCCCOC(=O)CCC(C)=O [LAOC-4, Butyl levulinate]
- IC50 [3]: 5.7 mg/mL (≈ 33.1 mM)
- Removal efficacy (%) ([4]; Ultrasound, 41° C., 10 min, evaporation 23 s at 117° C.): 100%
- Reusability (values normalized to trichloroethylene = 100) ([5]; Cereous preservative, number of cycles 1): 98.0
- Reusability (values normalized to trichloroethylene = 100) ([5]; Cereous preservative, number of cycles 2): 93.2
- Reusability (values normalized to trichloroethylene = 100) ([5]; Cereous preservative, number of cycles 4): 93.4
- Reusability (values normalized to trichloroethylene = 100) ([5]; Cereous preservative, number of cycles 7): 85.9
- Reusability (values normalized to trichloroethylene = 100) ([5]; Cereous preservative, number of cycles 10): 84.6
- Reusability (values normalized to trichloroethylene = 100) ([5]; Solvent based preservative, number of cycles 1): 74.4
- Reusability (values normalized to trichloroethylene = 100) ([5]; Solvent based preservative, number of cycles 2): 78.2
- Reusability (values normalized to trichloroethylene = 100) ([5]; Solvent based preservative, number of cycles 4): 62.2
- Reusability (values normalized to trichloroethylene = 100) ([5]; Solvent based preservative, number of cycles 7): 69.7
- Removal Efficacy normalized to trichloroethylene [1]: 99.9%
- LC50 (Fish acute toxicity): < 100 µg/mL
- Ecotoxicity rating (fish acute toxicity and ready biodegradability) (Fish): Low ecotox.
- Removal Efficacy normalized to trichloroethylene [2]: 79.0%

SMILES: CC(=O)CCC(=O)OCC(C)C [LAOC-4i, iso-butyl levulinate]
- IC50 [3]: 4.4 mg/mL (≈ 25.5 mM)
- Removal Efficacy normalized to trichloroethylene [1]: 96.4%
- LC50 (Fish acute toxicity): < 100 µg/mL
- Ecotoxicity rating (fish acute toxicity and ready biodegradability) (Fish): Low ecotox.
- Removal Efficacy normalized to trichloroethylene [2]: 87.8%

SMILES: CCCCCOC(=O)CCC(C)=O [LAOC-5, Pentyl levulinate]
- IC50 [3]: 16.6 mg/mL (≈ 89.1 mM)
- Removal Efficacy normalized to trichloroethylene [1]: 89.3%
- LC50 (Fish acute toxicity): < 100 µg/mL
- Ecotoxicity rating (fish acute toxicity and ready biodegradability) (Fish): Low ecotox.
- Removal Efficacy normalized to trichloroethylene [2]: 37.7%

SMILES: CCCCCCOC(=O)CCC(C)=O [LAOC-6, Hexyl levulinate]
- Removal Efficacy normalized to trichloroethylene [1]: 56.0%

SMILES: CCCCCCCCOC(=O)CCC(C)=O [LAOC-8, Octyl levulinate]
- Removal Efficacy normalized to trichloroethylene [1]: 61.0%

SMILES: ClC=C(Cl)Cl [Trichloroethylene, reference compound]
- carcinogen classification [6]: probable carcinogen
- Removal efficacy (%) ([4]; Immersion, 20° C., 3 min, evaporation 3 min at 20° C.): 100%
- Removal Efficacy normalized to trichloroethylene [1]: 100.0%
- RE (%) Removal Efficacy ([1]; Preservative B (cereous-based), immersion 10 minutes, three water washing cycles): 98.1%
- RE (%) Removal Efficacy ([2]; Preservative A (solvent-based), immersion 10 minutes, three water washing cycles): 94.2%
- Removal Efficacy normalized to trichloroethylene [2]: 100.0%
- removal efficacy (RE) ([2]; depending on the nature of the preservative (both preservatives A and B)): 94-98%
